Measured values from patent US11098040B2, “Compounds and methods of use” (Ferro Therapeutics, Inc., priority 2018, dated 2021).

Experiments:
[1] = Whole blood stability, mouse; format: in vitro ADME
Source text: (§1) The results of the assay on stability in blood and IC50 values for pancreatic cancer cell line KP4 are given below in Table 24.

[2] = Whole blood stability, human; format: in vitro ADME
Source text: as §1

[3] = test system: KP4; assay: Cell viability assay (CellTiter Glo), pancreatic ductal adenocarcinoma KP4; format: cell-based, human; details: Homo sapiens, KP-4, 96 h, pancreatic cancer cell line KP4, 96 hours, CellTiter Glo; read-out: IC50 μM KP4
Method in brief: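 KP4 cells seeded at 1,000–10,000 per well, treated 96 h with 9-point 3-fold dilutions from 30 μM top (4.6 nM–30 μM, duplicates; ≤0.25% DMSO). Viability by CellTiter Glo luminescence; % inhibition relative to DMSO-only wells, giving IC50, relative IC50 or % top inhibition.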

| SMILES | Whole Blood Stability % Remaining at 37° C. Mouse ([1]; 0 min) | Whole Blood Stability % Remaining at 37° C. Mouse ([1]; 30 min) | Whole Blood Stability % Remaining at 37° C. Mouse ([1]; 60 min) | Whole Blood Stability % Remaining at 37° C. Human ([2]; 0 min) | Whole Blood Stability % Remaining at 37° C. Human ([2]; 30 min) | Whole Blood Stability % Remaining at 37° C. Human ([2]; 60 min) | IC50 [3] |
| --- | --- | --- | --- | --- | --- | --- | --- |
| CN(C)C(=O)[C@H]1Cc2c([nH]c3ccc(Br)cc23)[C@H](c2ccc(C(=O)OC(C)(C)C)cc2)N1C(=O)CCl [Compound 61] | 100.0% | 20.5% | 6.8% | 100.0% | 49.2% | 34.0% | < 0.01 µM |
| COC(=O)[C@H]1Cc2c([nH]c3ccccc23)[C@H](C23CC(C(=O)OC)(C2)C3)N1C(=O)CCl [Compound 62] | 100.0% | 0.0% | 0.0% | 100.0% | 82.4% | 43.5% | 0.01 to 0.1 µM |
| COC[C@H]1Cc2c([nH]c3ccccc23)[C@H](c2ccc(C(=O)OC(C)(C)C)cc2)N1C(=O)CCl [Compound 63] | 100.0% | 97.0% | 108.4% | 100.0% | 113.1% | 70.7% | 0.01 to 0.1 µM |
| COC[C@H]1Cc2c([nH]c3ccccc23)[C@@H](c2ccc(C(=O)OC(C)(C)C)cc2)N1C(=O)CCl [Compound 64] | 100.0% | 0.0% | 0.0% | 100.0% | 44.3% | 14.7% | 0.1 to 0.5 µM |
| CN(C)C(=O)[C@H]1Cc2c([nH]c3ccccc23)[C@H](c2ccc(C(=O)NC[Si](C)(C)C)cc2)N1C(=O)CCl [Compound 66] | 100.0% | 69.8% | 26.8% | 100.0% | 79.1% | 45.8% | 0.01 to 0.1 µM |
| CN(C)C(=O)[C@H]1Cc2c([nH]c3ccccc23)[C@H](c2ccc([Si](C)(C)C)cc2)N1C(=O)CCl [Compound 67] | 100.0% | 38.7% | 13.3% | 100.0% | 56.8% | 37.3% | 0.01 to 0.1 µM |
| CN(C)C(=O)[C@H]1Cc2c([nH]c3ccccc23)[C@@H](c2ccc([Si](C)(C)C)cc2)N1C(=O)CCl [Compound 67a] | 100.0% | 52.4% | 18.2% | 100.0% | 35.5% | 15.5% | > 1 µM |
| CN(C)C(=O)[C@H]1Cc2c([nH]c3ccccc23)[C@H](c2ccc(S(=O)(=O)C(C)(C)C)cc2)N1C(=O)CCl [Compound 68] | 100.0% | 65.0% | 36.9% | 100.0% | 36.8% | 20.6% | 0.01 to 0.1 µM |
| CN(C)C(=O)[C@H]1Cc2c([nH]c3ccccc23)[C@H](c2ccc(S(=O)(=O)C3CCCC3)cc2)N1C(=O)CCl [Compound 69] | 100.0% | 63.8% | 29.3% | 100.0% | 48.4% | 18.3% | 0.01 to 0.1 µM |
| C=CCOC(=O)c1ccc([C@H]2c3[nH]c4ccccc4c3C[C@H](C(=O)OC)N2C(=O)CCl)cc1 [Compound 74] | 100.0% | 0.0% | 0.0% | 100.0% | 58.2% | 29.0% | < 0.01 µM |
| COC(=O)[C@H]1Cc2c([nH]c3ccccc23)[C@H](c2ccc(NC(C)=O)cc2)N1C(=O)CCl [Compound 80] | 100.0% | 72.3% | 58.6% | 100.0% | 60.9% | 49.6% | 0.01 to 0.1 µM |
| COC(=O)[C@H]1Cc2c([nH]c3ccccc23)[C@H](c2ccc(S(=O)(=O)NCC3CC3)cc2)N1C(=O)CCl [Compound 82] | 100.0% | 43.1% | 21.7% | 100.0% | 47.6% | 34.5% | < 0.01 µM |
| COC(=O)[C@H]1Cc2c([nH]c3ccccc23)[C@H](c2ccc(C(=O)OCC3(C)CC3)cc2)N1C(=O)CCl [Compound 84] | 100.0% | 0.0% | 0.0% | 100.0% | 87.7% | 58.3% | < 0.01 µM |

Further lines, results first:

| Whole Blood Stability % Remaining at 37° C. Mouse ([1]; 0 min) | Whole Blood Stability % Remaining at 37° C. Mouse ([1]; 30 min) | Whole Blood Stability % Remaining at 37° C. Mouse ([1]; 60 min) | Whole Blood Stability % Remaining at 37° C. Human ([2]; 0 min) | Whole Blood Stability % Remaining at 37° C. Human ([2]; 30 min) | Whole Blood Stability % Remaining at 37° C. Human ([2]; 60 min) | IC50 [3] | SMILES |
| --- | --- | --- | --- | --- | --- | --- | --- |
| 100.0% | 63.3% | 36.6% | 100.0% | 46.0% | 23.8% | 0.1 to 0.5 µM | CN(C)C(=O)[C@H]1Cc2c([nH]c3ccccc23)[C@H](c2ccc(S(=O)(=O)C3CC3)cc2)N1C(=O)CCl [Compound 70] |
| 100.0% | 90.4% | 75.5% | 100.0% | 80.4% | 59.3% | > 1 µM | CC(=O)Nc1ccc([C@H]2c3[nH]c4ccccc4c3C[C@H](C(=O)N(C)C)N2C(=O)CCl)cc1 [Compound 71] |
| 100.0% | 76.5% | 43.8% | 100.0% | 54.9% | 25.7% | > 1 µM | CC(=O)Nc1ccc([C@@H]2c3[nH]c4ccccc4c3C[C@H](C(=O)N(C)C)N2C(=O)CCl)cc1 [Compound 71a] |
| 100.0% | 0.0% | 0.2% | 100.0% | 28.0% | 7.0% | 0.01 to 0.1 µM | COC(=O)c1ccc([C@H]2c3c(c4ccccc4n3C)C[C@H](C(=O)OC)N2C(=O)CCl)cc1 [Compound 72] |
| 100.0% | 48.5% | 1.1% | 100.0% | 55.1% | 36.1% | 0.5 to 1 µM | COC(=O)c1ccc([C@@H]2c3c(c4ccccc4n3C)C[C@H](C(=O)OC)N2C(=O)CCl)cc1 [Compound 73] |
| 100.0% | 1.8% | 0.9% | 100.0% | 68.1% | 41.5% | < 0.01 µM | COC(=O)[C@H]1Cc2c([nH]c3ccccc23)[C@H](c2ccc(C(=O)OCC3CC3)cc2)N1C(=O)CCl [Compound 75] |
| 100.0% | 0.5% | 0.0% | 100.0% | 54.1% | 27.5% | < 0.01 µM | COC(=O)c1ccc([C@H]2c3[nH]c4ccccc4c3C[C@H](C)N2C(=O)CCl)cc1 [Compound 77] |
| 100.0% | 64.2% | 39.8% | 100.0% | 48.0% | 40.6% | < 0.01 µM | COC(=O)[C@H]1Cc2c([nH]c3ccccc23)[C@H](c2ccc(C(=O)NCC3CC3)cc2)N1C(=O)CCl [Compound 81] |
| 100.0% | 66.1% | 30.0% | 100.0% | 78.5% | 52.9% | < 0.01 µM | COC(=O)[C@H]1Cc2c([nH]c3ccccc23)[C@H](c2ccc(NCC3CC3)cc2)N1C(=O)CCl [Compound 83] |
